Test results taken from the NIST ThermoML archive (doi:10.1016/j.jct.2011.08.017).

Assays:
[1] = for vapor or sublimation pressure: Closed cell (Static) method; for Normal melting temperature: DTA
[2] = Molar enthalpy of transition or fusion; conditions: Crystal; DSC

Cn1cnc(C#N)c1C#N [1-methyl-1H-imidazole-4,5-dicarbonitrile]
[1]
Conditions	vapor or sublimation pressure [kPa]
337.86 K, Crystal	0.00034
339.38 K, Crystal	0.00039
340.86 K, Crystal	0.00046
342.35 K, Crystal	0.00053
343.84 K, Crystal	0.00061
345.33 K, Crystal	0.0007
346.81 K, Crystal	0.00082
348.31 K, Crystal	0.00094
349.78 K, Crystal	0.00107
351.29 K, Crystal	0.00124
352.76 K, Crystal	0.00142
354.26 K, Crystal	0.00163
355.73 K, Crystal	0.00186
355.76 K, Metastable liquid	0.00198
357.23 K, Crystal	0.00212
357.23 K, Metastable liquid	0.00221
358.72 K, Crystal	0.00242
358.77 K, Metastable liquid	0.00249
360.71 K, Metastable liquid	0.00284
362.59 K, Liquid	0.0033
364.68 K, Liquid	0.00381
366.64 K, Liquid	0.0044
368.64 K, Liquid	0.00506
370.6 K, Liquid	0.00584
372.61 K, Liquid	0.0067
374.56 K, Liquid	0.00765
376.58 K, Liquid	0.00875
378.53 K, Liquid	0.01
380.52 K, Liquid	0.01138
382.49 K, Liquid	0.01298
384.5 K, Liquid	0.01474
386.44 K, Liquid	0.01668
388.45 K, Liquid	0.01889
390.43 K, Liquid	0.02143
392.4 K, Liquid	0.0241
394.36 K, Liquid	0.02715
396.35 K, Liquid	0.0304
398.31 K, Liquid	0.03419
400.31 K, Liquid	0.03815
402.27 K, Liquid	0.04273
404.27 K, Liquid	0.04766
406.23 K, Liquid	0.05325

Conditions	Normal melting temperature [°C]
[1], Crystal	87.1

Conditions	Molar enthalpy of transition or fusion [kcal/mol]
[2]	3.54

Cn1ccnc1 [1-methylimidazole]
[1]
Conditions	vapor or sublimation pressure [kPa]
255.52 K, Crystal	0.00122
256.47 K, Metastable liquid	0.00184
256.5 K, Crystal	0.00139
257.48 K, Crystal	0.00157
257.48 K, Metastable liquid	0.00204
258.55 K, Metastable liquid	0.00226
258.57 K, Crystal	0.00177
259.5 K, Metastable liquid	0.00249
259.53 K, Crystal	0.00201
260.46 K, Metastable liquid	0.00273
260.48 K, Crystal	0.00225
261.42 K, Metastable liquid	0.00301
261.45 K, Crystal	0.00255
262.38 K, Metastable liquid	0.0033
262.41 K, Crystal	0.00277
263.36 K, Metastable liquid	0.00362
263.37 K, Crystal	0.00317
264.36 K, Crystal	0.00356
265.16 K, Metastable liquid	0.00425
265.35 K, Crystal	0.004
267.28 K, Metastable liquid	0.00515
269.27 K, Metastable liquid	0.00618
271.23 K, Liquid	0.00739
273.22 K, Liquid	0.00866
275.16 K, Liquid	0.01042
277.18 K, Liquid	0.01215
281.14 K, Liquid	0.01675
285.09 K, Liquid	0.02306
287.07 K, Liquid	0.02725
289.06 K, Liquid	0.03146
291.04 K, Liquid	0.03655
293.04 K, Liquid	0.04224
295.03 K, Liquid	0.049
297.03 K, Liquid	0.05608
298.98 K, Liquid	0.06498
300.98 K, Liquid	0.07451
302.96 K, Liquid	0.0852
304.98 K, Liquid	0.09635

Conditions	Normal melting temperature [°C]
[1], Crystal	-4.5

Conditions	Molar enthalpy of transition or fusion [kcal/mol]
[2]	2.94

Cn1cnc(Cl)c1Cl [4,5-dichloro-1-methyl-1H-imidazole]
[1]
Conditions	vapor or sublimation pressure [kPa]
288.03 K, Crystal	0.00048
290.06 K, Crystal	0.0006
292.08 K, Crystal	0.00076
294.06 K, Crystal	0.00096
296.06 K, Crystal	0.0012
298.04 K, Crystal	0.00149
300.05 K, Crystal	0.00185
302.01 K, Crystal	0.00231
303.99 K, Crystal	0.00286
306.02 K, Crystal	0.00352
307.96 K, Crystal	0.0043
309.97 K, Crystal	0.00527
311.98 K, Crystal	0.00646
313.95 K, Crystal	0.00782
315.93 K, Crystal	0.00957
317.91 K, Crystal	0.01164
319.99 K, Crystal	0.01413
322 K, Crystal	0.01693
323.97 K, Crystal	0.02049
325.97 K, Crystal	0.02463
329.93 K, Metastable liquid	0.03434
331.93 K, Liquid	0.03936
333.9 K, Liquid	0.04506
335.89 K, Liquid	0.05151
337.88 K, Liquid	0.05882
339.87 K, Liquid	0.06701
341.86 K, Liquid	0.07636
343.84 K, Liquid	0.08631
345.82 K, Liquid	0.09809
347.8 K, Liquid	0.1106
349.78 K, Liquid	0.1248

Conditions	Normal melting temperature [°C]
[1], Crystal	57.0

Conditions	Molar enthalpy of transition or fusion [kcal/mol]
[2]	4.06
